Measured values from patent US5591741A, “Fungicidal spiroheterocyclic derivatives” (American Cyanamid Company, priority 1993, dated 1997).

Assays:
[1] = tested on: Plasmopara viticola; experiment: Antisporulant activity against vine downy mildew (PVA); format: in vivo; conditions: vine leaves, antisporulant foliar spray, 600 ppm, 750 l/ha
Summary of the method: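 Cabernet Sauvignon vines (~8 cm) inoculated on lower leaf surfaces with 5×10^4 zoosporangia/ml, held 24 h at 21° C high humidity then 24 h glasshouse. Infected leaves sprayed underside with 600 ppm compound in 1:1 water/acetone, 0.04% Tween 20, 750 l/ha; 96 h glasshouse, 24 h humidity. Sporulating leaf area rated versus control.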

[2] = tested on: Alternaria solani; experiment: Activity against tomato early blight (AS); format: in vivo; conditions: Table VI; tomato seedlings, contact prophylactic foliar spray, 4 days
Summary of the method: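 Plants were challenged with A. solani conidia (10^4 spores/ml) 24 h after a protective foliar spray of compound in 50:50 acetone/water plus 0.04% Tween 20. Held humid at 21° C for 4 days, then percent leaf area with lesions was scored as a rating relative to controls.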

[3] = tested on: Botrytis cinerea; experiment: Direct protectant activity against broad bean grey mould (BCB); format: in vivo; conditions: direct protectant foliar spray, 600 ppm, 4 days
Summary of the method: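 Protectant foliar test: lesion coverage assessed 4 days after inoculation and rated relative to untreated or diluent-sprayed plants. Compound applied at 600 ppm to cv The Sutton leaves 24 h before 10^6 conidia/ml suspension; incubation at 22 °C in high humidity.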

[4] = tested on: Leptosphaeria nodorum; experiment: Activity against wheat leafspot (LN); format: in vivo; conditions: direct therapeutic foliar spray, 600 ppm, 6-8 days
Summary of the method: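 Therapeutic foliar spray: compound at 600 ppm applied to single-leaf wheat (cv Norman) 24 h after inoculation with 1.5×10^6 conidia/ml. Disease control scored after 6-8 days at 22° C and 70% humidity as lesions per leaf versus untreated or diluent-sprayed controls.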

[5] = tested on: Erysiphe graminis f.sp. hordei; experiment: Activity against barley powdery mildew, direct therapeutic (EGT); format: in vivo; conditions: direct therapeutic foliar spray, 600 ppm, up to 7 days
Summary of the method: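 A curative spray at 600 ppm was applied to single-leaf Golden Promise barley inoculated with powdery mildew conidia the previous day. After up to 7 days at 18 °C and 40% humidity, disease control was rated from percent leaf area sporulating relative to untreated or diluent-sprayed controls.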

[6] = tested on: Erysiphe graminis f.sp. hordei; experiment: Direct protectant activity against barley powdery mildew (EGP); format: in vivo; conditions: direct protectant foliar spray, 8 days
Summary of the method: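 Rating reflects percentage of leaf area with sporulation compared with untreated or diluent-sprayed controls. Protectant spray was applied to single-leaf barley (cv Golden Promise) 24 h before conidia inoculation. Plants were kept at 18 °C and 40% RH throughout, with 8 days of disease development.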

[7] = tested on: Phytophthora infestans; format: in vivo; conditions: tomato, direct protectant foliar spray
[8] = tested on: Pseudocercosporella herpotrichoides; experiment: Activity against wheat eyespot in-vitro (PHI); format: cell-based; conditions: 10 ppm, 10 days, 20° C., mycelial growth
Summary of the method: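 Mycelial growth was scored after 10 days at 20 °C against untreated or diluent controls. The broth was half-strength potato dextrose, holding 10 ppm test compound (from acetone) and 5×10^4 fragments/ml of the eyespot fungus.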

[9] = tested on: Rhizoctonia solani; experiment: Activity against Rhizoctonia in-vitro (RSI); format: cell-based; conditions: 10 ppm, 10 days, 20° C., mycelial growth
Summary of the method: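 Compound at a final 10 ppm (acetone vehicle) in half-strength PDB, inoculated with 5×10^4 fragments/ml of shaken-culture R. solani mycelium. After incubation at 20° C for 10 days, growth scored as a rating versus untreated or diluent-treated controls.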

[10] = tested on: Venturia inaequalis; experiment: Activity against apple scab in-vitro (VII); format: cell-based; conditions: 10 ppm, 10 days, 20° C., mycelial growth
Summary of the method: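 V. inaequalis propagules (5×10^4/ml, malt agar-grown) were exposed in half-strength PDB to 10 ppm final test compound delivered in acetone. Growth was scored after incubation for 10 days at 20° C, as a rating relative to untreated or diluent-sprayed controls.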

[11] = tested on: Pyricularia oryzae; format: in vivo; conditions: rice seedlings, direct therapeutic foliar spray, 600 ppm, 4-5 days

Compound | disease control rating PVA [1] | disease control rating AS [2] | disease control rating BCB [3] | disease control rating LN [4] | disease control rating EGT [5] | disease control rating EGP [6] | disease control rating PIP [7] | disease control rating PHI [8] | disease control rating RSI [9] | disease control rating VII [10] | disease control rating PO [11]
CC1CN(C2COC3(CCCCC3)C2)CC(C)O1 (stereo not drawn) [Compound 36] | 0 (less than 50% disease control) | 0 (less than 50% disease control) | 0 (less than 50% disease control) | 0 (less than 50% disease control) | 2 (greater than 80% disease control) | 2 (greater than 80% disease control) | 0 (less than 50% disease control) | 0 (less than 50% disease control) | 0 (less than 50% disease control) | 1 (about 50-80% disease control) | 0 (less than 50% disease control)
CC(C)(C)C1CCC2(CC1)CC(NC1CCCCCC1)CO2 (stereo not drawn) [Compound 104] | 0 (less than 50% disease control) | 0 (less than 50% disease control) | 0 (less than 50% disease control) | 1 (about 50-80% disease control) | 2 (greater than 80% disease control) | 2 (greater than 80% disease control) | 2 (greater than 80% disease control) | 0 (less than 50% disease control) | 0 (less than 50% disease control) | 1 (about 50-80% disease control) | 0 (less than 50% disease control)
CCCNC1COC2(CCC(C(C)(C)C)CC2)C1 (stereo not drawn) [Compound 62] | 0 (less than 50% disease control) | 0 (less than 50% disease control) | 1 (about 50-80% disease control) | 0 (less than 50% disease control) | 2 (greater than 80% disease control) | 2 (greater than 80% disease control) | 0 (less than 50% disease control) | 0 (less than 50% disease control) | 0 (less than 50% disease control) | 0 (less than 50% disease control) | 0 (less than 50% disease control)
CCCCCCNC1COC2(CCC(C(C)(C)C)CC2)C1 (stereo not drawn) [Compound 39] | 0 (less than 50% disease control) | 2 (greater than 80% disease control) | 0 (less than 50% disease control) | 0 (less than 50% disease control) | 2 (greater than 80% disease control) | 2 (greater than 80% disease control) | 0 (less than 50% disease control) | 1 (about 50-80% disease control) | 0 (less than 50% disease control) | 0 (less than 50% disease control) | 0 (less than 50% disease control)
CN(CC1CCCCC1)C1COC2(CCC(C(C)(C)C)CC2)C1 (stereo not drawn) [Compound 91] | 0 (less than 50% disease control) | 0 (less than 50% disease control) | 1 (about 50-80% disease control) | 1 (about 50-80% disease control) | 2 (greater than 80% disease control) | 2 (greater than 80% disease control) | 2 (greater than 80% disease control) | 2 (greater than 80% disease control) | 0 (less than 50% disease control) | 0 (less than 50% disease control) | 0 (less than 50% disease control)
CCCC(CCC)NC1COC2(CCC(C(C)(C)C)CC2)C1 (stereo not drawn) [Compound 99, 3-Hept-4-ylamino-8-t-butyl-1-oxaspiro(4,5)-decane] | 0 (less than 50% disease control) | 0 (less than 50% disease control) | 0 (less than 50% disease control) | 0 (less than 50% disease control) | 2 (greater than 80% disease control) | 2 (greater than 80% disease control) | 2 (greater than 80% disease control) | 0 (less than 50% disease control) | 0 (less than 50% disease control) | 2 (greater than 80% disease control) | 0 (less than 50% disease control)
CCCN(CC(C)(C)C)C1COC2(CCC(C(C)(C)C)CC2)C1 (stereo not drawn) [Compound 133] | 0 (less than 50% disease control) | 0 (less than 50% disease control) | 0 (less than 50% disease control) | 0 (less than 50% disease control) | 2 (greater than 80% disease control) | 2 (greater than 80% disease control) | 0 (less than 50% disease control) | 0 (less than 50% disease control) | 0 (less than 50% disease control) | 1 (about 50-80% disease control) | 0 (less than 50% disease control)
CC(=CC(=O)CC(C)C)NC1COC2(CCC(C(C)(C)C)CC2)C1 (stereo not drawn) [Compound 124] | 0 (less than 50% disease control) | 0 (less than 50% disease control) | 0 (less than 50% disease control) | 0 (less than 50% disease control) | 2 (greater than 80% disease control) | 2 (greater than 80% disease control) | 2 (greater than 80% disease control) | 0 (less than 50% disease control) | 0 (less than 50% disease control) | 0 (less than 50% disease control) | 0 (less than 50% disease control)
CC(C)(C)C1CCC2(CC1)CC(N1CCC3CCCCC3C1)CO2 (stereo not drawn) [Compound 6] | 0 (less than 50% disease control) | 0 (less than 50% disease control) | 1 (about 50-80% disease control) | 0 (less than 50% disease control) | 2 (greater than 80% disease control) | 2 (greater than 80% disease control) | 0 (less than 50% disease control) | 0 (less than 50% disease control) | 1 (about 50-80% disease control) | 1 (about 50-80% disease control) | 0 (less than 50% disease control)
